Measurements taken from US4004008A, “O-Tertiary amino-alkyl-N-benzoyl tyrosil amides” (priority 1974, dated 1977).

Key:
[1] = Acute toxicity (DL50) i.v. in rat; assay type: in vivo; conditions: in vivo, iv, dose causing death in 50% of the animals
Method: In this table (n. 1) there are recorded the compounds described in the examples with their relative serial numbers, the acute toxicity, the antispastic activity observed in two experimental tests, one "in vivo" and one "in vitro". There are moreover recorded two therapeutic indices which take account of the toxicity of these compounds in relation to their in vivo and in vitro activity. More precisely:
A. DL50 which, as is known, is the quantity of the substance expressed in mg/kg of animal weight, capable of causing death in 50% of the animals treated.

[2] = system: intestinal transit of the charcoal; assay: Vegetable carbon (charcoal) intestinal transit test in vivo; set-up: species or system rat; conditions: i.v., rat, charcoal test, 2 hours; for ED50: Rattus norvegicus, iv, 2 h, read-out: Antisp. activity in transit test: ED50
Method: B. The vegetable carbon method in vivo (charcoal method) which consists of administering by oral means to rats, which have fasted for 24 hours, 0.3ml/per rate of a mixture consisting of: 10g of charcoal and 5 g of gum arabic suspended in a volume of 100 cc of H2 O as well as at the same time the substance being studied, accordingly as desired, generally i.v., s.c., oral. After two hours the animals are killed and those are taken to be negative in which the charcoal has reached the first portion of the colon and the others positive, in the sense that the substance administered has slowed down the intestinal transit of the charcoal.
In effect the animals treated with a physiological solution (checks) are all negative after two hours.
D. I.T.1 is the therapeutic index under the profile of the antispastic activity in vivo, and it is obtained by recording the DL50 (column 2) with the ED50 of the charcoal test (column 3).

[3] = system: ileum of a cavy (BaCl2 spasm); assay: Antispastic activity in vitro, Magnus method, cavy ileum stimulated with BaCl2; assay type: cell-based; conditions: ratio to papaverine = 1; Table 1; 37°
Method: C. The method in vitro is that of Magnus, with the ileum of the cavy, and is in common use for all evaluations. It consists of extracting the ileum from the cavy and placing it in a receptacle which contains nutritive liquid, suitably oxygenated, and registering the movements of the organ which remains alive for several hours if maintained at a temperature of 37°. According to the traditional method followed by us, BaCl2 is put into the bath as a spasmisant: the reaction is a violent contraction of the organ. This contraction can be prevented by adding beforehand pharmaceuticals which inhibit spasms, and in this case our compounds.
The values recorded are expressed as relation between papaverine and the ED50 of our compounds. (As is known, the ED50 is the dose which results in a 50% reduction in spastic contraction).
E. I.T.2 is the therapeutic index under the profile of the antispastic activity in vitro and is given by the product between the in vitro antispastic activity index (column 4) and the corresponding DL50 (column 2).

SMILES | LD50 [1] | ED50 [2] | Antisp. activity in vitro on the ileum of a cavy by Stim. BaCl2: ED50 pap./ED50 CR [3] | Antisp. activity in transit test: ED50 [2]
CCCN(CCC)C(=O)C(Cc1ccc(OCCN(C)C)cc1)NC(=O)c1ccccc1 (racemic) [CR 592, O-(2dimethylamino-ethyl)-N-benzol-DL-Tyrosil-di-n-propilamide] | 58.1 mg/kg | 47.5 mg/kg | 0.25 | 
CCNC(=O)C(Cc1ccc(OCCN(C)C)cc1)NC(=O)c1ccccc1 (racemic) [CR 608, O-(2-dimethylamino-ethyl)-N-benzoyl-DL-tyrosil-ethylamide] | 162 mg/kg | 104 mg/kg |  | 
CCCN(CCC)C(=O)C(Cc1ccc(OCCCN2CCN(CCO)CC2)cc1)NC(=O)c1ccccc1 (racemic) [CR 609, O-[3-(N"-hydroxyethyl-piperazine)-N'-propyl]-N-benzoyl-DL-tyrosil-di-n-propylamide] | 139 mg/kg | 50.5 mg/kg | 0.68 | 
CN(C)CCOc1ccc(CC(NC(=O)c2ccccc2)C(=O)N2CCOCC2)cc1 (racemic) [CR 611, O-(2-dimetylamino-ethyl)-N-benzoyl-DL-tyrosil-morpholilamide] | 108 mg/kg | 59.8 mg/kg |  | 
CCN(CC)CCOc1ccc(CC(NC(=O)c2ccccc2)C(=O)N2CCCC2)cc1 (racemic) [CR 614, O-(2-diethylamino-ethyl)-N-benzoyl-DL-tyrosil-pyrrolidilamide] | 58.7 mg/kg | 53.2 mg/kg |  | 
CN(C)CCOc1ccc(CC(NC(=O)c2ccccc2)C(=O)NCc2ccccc2)cc1 (racemic) [CR 616, O-(2-dimethylamino-ethyl)-N-benzoyl-DL-tyrosil-benzylamide] | 73.6 mg/kg |  | 0.82 | inactive
CCCN(CCC)C(=O)C(Cc1ccc(OCCCN2CCN(Cc3ccccc3)CC2)cc1)NC(=O)c1ccccc1 (racemic) [CR 619, O-[3-(N"-benzylpiperazine)-N'-propyl]-N-benzoyl-DL-tyrosil-di-n-propylamide] | 110 mg/kg | 67.8 mg/kg |  | 
CCCN(CCC)C(=O)C(Cc1ccc(OCCN(C)C)cc1)NC(=O)c1ccc([N+](=O)[O-])cc1 (racemic) [CR 620, O-(2-dimethylamino-ethyl)-N-(p-nitro-benzoyl)DL-tyrosil-di-n-propylamide] | 117 mg/kg |  | 0.36 | inactive
CCCN(CCC)C(=O)C(Cc1ccc(OCCN(C(C)C)C(C)C)cc1)NC(=O)c1ccccc1 (racemic) [CR 624, O-(2-di-isopropylamino-ethyl)-N-benzoyl-DL-tyrosil-di-n-propylamide] | 24.4 mg/kg |  | 1.12 | inactive
CCCN(CCC)C(=O)C(Cc1ccc(OCCN2CCCC2)cc1)NC(=O)c1ccccc1 (racemic) [CR 625, O-(2-pyrrolidil-N'-ethyl)-N-benzoyl-DL-tyrosil-di-n-propylamide] | 32.6 mg/kg | 21.1 mg/kg | 0.52 | 
CCCN(CCC)C(=O)C(Cc1ccc(OCCN2CCCCC2)cc1)NC(=O)c1ccccc1 (racemic) [CR 630, O-(2-piperidil -N'-ethyl)-N-benzoyl-DL-tyrosil-di-n-propylamide] | 36.1 mg/kg | 40.1 mg/kg |  | 
CCCN(CCC)C(=O)C(Cc1ccc(OCCN(CC)CC)cc1)NC(=O)c1ccc(Br)cc1 (racemic) [CR 631, O-(2-diethylamino-ethyl)-N-(p-bromobenzoyl)-DL-tyrosil-din-propylamide] | 60.2 mg/kg | 40.4 mg/kg | 1.22 | 
CCCN(CCC)C(=O)C(Cc1ccc(OCCN(CC)CC)cc1)NC(=O)c1ccc(C)c(C)c1 (racemic) [CR 632, O-(2-diethylamino-ethyl)-N-(3,4-di-methyl-benzoyl)-DL-tyrosil-di-n-propylamide] | 38.1 mg/kg | 26 mg/kg | 0.40 | 
CCCN(CCC)C(=O)C(Cc1ccc(OCCN(CC)CC)cc1)NC(=O)c1ccc(C(F)(F)F)cc1 (racemic) [CR 635, O-(2-diethylamino-ethyl)-N-[p-(trifluoro-methyl)-benzoyl]-DL-tyrosil-di-n-p ropylamide] | 38.7 mg/kg | 25.6 mg/kg | 0.95 | 
CCCN(CCC)C(=O)C(Cc1ccc(OCCN(CC)CC)cc1)NC(=O)c1ccc(OC)cc1 (racemic) [CR 644, O-(2-diethylamino-ethyl)-N-(p-metoxy-benzoyl)-DL-tyrosil-di-n-propylamide] | 56.4 mg/kg | 20.2 mg/kg | 0.45 | 
CCCCNC(=O)C(Cc1ccc(OCCN2CCCC2)cc1)NC(=O)c1ccccc1 (racemic) [CR 648, O-(2-pyrrolidil-N'-ethyl)-N-benzoyl-DL-tyrosil-n-butylamide] | 35.6 mg/kg | 10.7 mg/kg | 0.16 | 
CCCN(CCC)C(=O)C(Cc1ccc(OC(C)C(C)CN(CC)CC)cc1)NC(=O)c1ccccc1 (racemic) [CR 700, O-(3-diethylamino-1,2-dimethyl-propyl)-N-benzoyl-DL-tyrosil-di-n-propylamide] | 19.3 mg/kg | 20.4 mg/kg |  | 
CCCCNC(=O)C(Cc1ccc(OCCCN2CCN(C)CC2)cc1)NC(=O)c1ccccc1 (racemic) [CR 702, O-[3-(N"-methyl-piperazine)-N'-propyl]-N-benzoyl-DL-tyrosil-n-butylamide] | 81.4 mg/kg | 62.5 mg/kg | 0.11 | 
CCCCNC(=O)C(Cc1ccc(OCCCN2CCN(C)CC2)cc1)NC(=O)c1ccc(Cl)cc1 (racemic) [CR 705, O-[3-(N"-methyl-piperazine)-N'-propyl]-N-(p-chloro-benzoyl)-DL-tyrosil-n-butylamide] | 80 mg/kg | 31 mg/kg | 1.57 | 
CCNC(=O)C(Cc1ccc(OCCN(C(C)C)C(C)C)cc1)NC(=O)c1ccccc1 (racemic) [CR 711, O-(2-diisopropylamino-ethyl)-N-benzoyl-DL-tyrosil-ethylamide] | 82 mg/kg |  | 0.42 | inactive
CCNC(=O)C(Cc1ccc(OCCCN2CCN(C)CC2)cc1)NC(=O)c1ccc(Cl)cc1 (racemic) [CR 714, O-[3-(N"-methyl-piperazine)-N'-propyl]-N-(p-chloro-benzoyl)-DL-tyrosil-ethylamide] | 111 mg/kg |  | 0.42 | inactive
CCCN(CCC)C(=O)C(Cc1ccc(OCCN(C(C)C)C(C)C)cc1)NC(=O)c1ccc(Cl)cc1 (racemic) [CR 727, O-(2'-di-isopropylamino-ethyl)-N-(p-chloro-benzoyl)-DL-tyrosil-di-n-propylamide] | 26.3 mg/kg | 24.9 mg/kg | 1.52 | 
CCCCNC(=O)C(Cc1ccc(OCCN(CC)CC)cc1)NC(=O)c1ccc(Cl)cc1 (racemic) [CR 729, O-(2-diethylamino-ethyl)-N-(p-chloro-benzoyl)-DL-tyrosil-n-butylamide] | 38.6 mg/kg | 23 mg/kg | 2.45 | 
CCCCNC(=O)C(Cc1ccc(OCCN2CCN(C)CC2)cc1)NC(=O)c1ccc(Cl)cc1 (racemic) [CR 730, O-[2-(N"-methyl-piperazine)-N'-ethyl]-N-(p-chloro-benzoyl)-DL-tyrosil-n-butylamide] | 50 mg/kg | 30.2 mg/kg | 0.99 | 
CCCN(CCC)C(=O)C(Cc1ccc(OCCN2CCN(C)CC2)cc1)NC(=O)c1ccc(Cl)cc1 (racemic) [CR 733, O-[2'-(N"-methyl-piperazine)-N'-ethyl]-N-(p-chloro-benzoyl)-DL-tyrosil-di-n-propylamide] | 43.5 mg/kg | 16.7 mg/kg | 1.31 | 
CCCN(CCC)C(=O)C(Cc1ccc(OCCCCN(CC)CC)cc1)NC(=O)c1ccccc1 (racemic) [CR 829, O-(4-diethylamino-butyl)-N-benzoyl-DL-tyrosil-di-n-propylamide] | 20.1 mg/kg | 15.2 mg/kg |  | 
